In US8455510B2:
“Also recorded” adds a separate entry of the source. Where two headings read alike, the source gives them in different places.

Legend:
[1] = test system: phosphorylation levels of p70S6K and 4E-BP1; assay: Western blotting of mTOR downstream substrate phosphorylation in tumor cells; assay type: cell-based, human; conditions: Rh30, PC-3, MCF-7 and CAKI-1 cells, 1 hour treatment, IGF stimulation, FIG. 2
Description: Cells were inoculated on a 12-well plate with given densities and allowed to attach overnight. Then the medium was changed to a serum-free one. After starved for 24 hours, the cells were treated with the compound at corresponding concentrations for 1 hour, and then stimulated by IGF for 10 min. The cells were collected, and the phosphorylation levels of p70S6K and 4E-BP1 in the cells were measured by using Western blotting.

PC-3 cells = assay: SRB growth inhibition, PC-3 cells; assay type: cell-based, human; conditions: SRB method, 72 hours, different concentrations, FIG. 1
Description: (§1) After Rh30 cells were treated by the compound at different concentrations, the cell survival rate was detected by SRB method.
(§2) The above various kinds of tumor cells in logarithmic growth phase were inoculated on a 96-well plate with 90 μl per well, and allowed to attach for 24 hours, followed by the addition of the compound with 10 μl per well. For each concentration, the test was carried out in triplicate wells, and included a control well containing the aqueous medium of normal saline at the corresponding concentration and a blank well without cells for zeroing. The tumor cells were cultured for 72 hours at 37° C. and 5% CO2, and then the culture medium was removed. The cells were fixed with cold 10% TCA (trichloroacetic acid) at 4° C. for 1 hour, then washed with distilled water for 5 times, and dried at room temperature, followed by addition of a SRB (Sigma) solution (4 mg/ml) in 1% glacial acetic acid at 100 μl per well. The cells were stained at room temperature for 15 min, and the supernatant was removed. The plate was washed by 1% acetic acid for 5 times and dried at room temperature. Finally, Tris-solution was added at 150 μl per well, and the A value was measured at a wavelength of 520 nm on an ELISA Reader.

[2] = test system: human prostate cancer PC-3 xenograft; assay: PC-3 xenograft on nude mice; conditions: 1-5 × 3.5 w; for TV (mm3) d0: baseline
[3] = test system: human rhabdomyosarcoma RH-30 xenograft; assay: RH-30 xenograft on nude mice; conditions: for TV (mm^3) d0: baseline;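 on all read-outs here: male BALB/cA nude mice with subcutaneous RH-30 tumors, oral dosing versus solvent-fed controls, caliper tumor volume, RTV relative to grouping day, T/C as treated RTV over control RTV ×100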
Description: Animals: BALB/cA nude mice, male, 40-45 days old, body weight: 21±2 g, provided by Shanghai Institute of Materia Medica, Chinese Academy of Sciences. License No.: SCXK (Shanghai) 2004-0002. Animal number in each group: 6 in negative control group, and 6 in administration group.
The amount of inoculated cells was 5×10^6. After the xenograft was formed by inoculation, it was used after passed for 3 generations in nude mice.

HL-60 cells = assay: SRB growth inhibition, HL-60 cells; assay type: cell-based, human; conditions: SRB method, 72 hours, different concentrations, FIG. 1
Description: as §1, §2

T Cells = assay: Immunosuppressive activity assay: T cells inhibitory activity; assay type: cell-based; conditions: T-cell; Table 10
Rh30 cells = assay: SRB growth inhibition, Rh30 cells; assay type: cell-based, human; conditions: SRB method, 72 hours, different concentrations, FIG. 1
Description: as §1, §2

CAKI-1 cells = assay: SRB growth inhibition, CAKI-1 cells; assay type: cell-based, human; conditions: SRB method, 72 hours, different concentrations, FIG. 1
Description: as §1, §2

FKBP-12 protein = biological target: T1, FKBP-12 protein (Homo sapiens, UniProt P62942); assay: SPR (surface plasma resonance) binding with FKBP-12
T1 construct: purchased sigma Co
T1 sequence (P62942 whole entry, species assumed): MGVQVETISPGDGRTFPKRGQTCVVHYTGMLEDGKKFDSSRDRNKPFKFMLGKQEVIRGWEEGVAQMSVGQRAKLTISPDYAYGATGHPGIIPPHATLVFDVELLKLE
Description: (1) FKBP-12 protein was purchased from sigma Co.
(2) HBS-EP buffer solution (10 mM Hepes, 150 mM NaCl, 3.4 mM EDTA, 0.005% (v/v) surfactant P20, pH 7.4)
(3) Activating reagents EDC and NHS, and blocking reagents Ethanolamine, etc., were purchased from BIACORE AB Co. (Uppsala, Sweden).
(4) BIAcore 3000 and CM5 chip were purchased from BIACORE AB Co. (Uppsala, Sweden).
(2) […] was coupled to the FC2 channel on CM5 chip by using the Wizard for amino-coupling in Biacore 3000 controlling soft. 3.3 g/L of FKBP-12 protein was diluted with 10 mM NaAC (pH 4.6) to 66 μg/ml. The surface of the chip was washed by injecting a mixture of 0.1M1-(3-dimethylaminopropyl)-3-ethylcarbodiimide hydrochloride (EDCI) and 0.1M N-hydroxysuccinimide (NHS) (1:1) at a flow rate of 20 μL/min for 7 min. After that, the protein solution was injected, and then a 1M cholamine (pH 8.5) solution was fed for 7 min to block the activated surface of the chip. Preliminary screening and pharmacokinetic tests on the compounds
The binding abilities of small molecular compounds with FKBP-12 protein were evaluated by SPR (surface plasma resonance). The stock solution of the compound was 10 mM, and was diluted by HBS-EP buffer solution at given ratios. Pharmacokinetic tests were carried out by the Wizard for kinetic analysis in Biacore 3000 controlling soft. The resulted data were fitted by 1:1 Langmuir binding model or stability model in Biacore 3000 analytical soft to obtain the exact kinetic and thermodynamic constants.

MCF-7 cells = assay: SRB growth inhibition, MCF-7 cells; assay type: cell-based, human; conditions: SRB method, 72 hours, different concentrations, FIG. 1
Description: as §1, §2

[4] = Immunosuppressive activity assay: cytotoxicity; assay type: cell-based
[5] = Table 2, 5 mg/kg p.o, 1-5 × 3 w
[6] = Table 2, 10 mg/kg p.o, 1-5 × 3 w

- IC50 (T Cells): 9.1 µM
- binding with FKBP12 (FKBP-12 protein): concentration-dependently bind
- Kd (FKBP-12 protein; FKBP12): 0.00026 µM
- koff (FKBP-12 protein; FKBP12): 0.14 × 10^−3 S^−1
- kon (FKBP-12 protein; FKBP12): 5.24 × 10^5 M^−1S^−1
- R^U (Response Unit) compared with rapamycin (FKBP-12 protein; at the same concentration): higher
- concentration to reach the saturation state for the binding with FKBP12 (FKBP-12 protein; compared with rapamycin): lower than that for rapamycin
SMILES: CO[C@H]1CC2CC[C@@H](C)[C@@](O)(O2)C(=O)C(=O)N2CCCCC2C(=O)O[C@H]([C@H](C)C[C@@H]2CC[C@@H](OC(=O)OCC(O)CO)[C@H](OC)C2)CC(=O)[C@H](C)/C=C(\C)[C@@H](OC(=O)OCC(O)CO)[C@@H](OC)C(=O)[C@H](C)C[C@H](C)/C=C/C=C/C=C/1C (stereo partly shown) [Y50]
- inhibition of mTOR-catalyzed phosphorylation of p70S6K and 4E-BP1 [1]: concentration-dependently suppress; also recorded: comparable inhibitory effects to those of rapamycin
- inhibitory effects on the growth of PC-3 cells (PC-3 cells): comparable to those of rapamycin
- Body Weight (g) end ([2]; Table 3, 2.5 mg/kg p.o): 17.7 g
- Body Weight (g) start ([2]; Table 3, 2.5 mg/kg p.o): 19.7 g
- RTV ([2]; Table 3, 2.5 mg/kg p.o): 2.6 ± 1.1
- T/C (%) ([2]; Table 3, 2.5 mg/kg p.o): 40.2%
- TV (mm3) d21 ([2]; Table 3, 2.5 mg/kg p.o): 273 ± 163 mm3
- TV (mm3) d0 ([2]; Table 3, 2.5 mg/kg p.o): 103 ± 35 mm3
- Body Weight (g) end ([2]; Table 3, 5 mg/kg p.o): 22.3 g
- Body Weight (g) start ([2]; Table 3, 5 mg/kg p.o): 22.7 g
- RTV ([2]; Table 3, 5 mg/kg p.o): 0.65 ± 0.4
- T/C (%) ([2]; Table 3, 5 mg/kg p.o): 10.0%
- TV (mm3) d21 ([2]; Table 3, 5 mg/kg p.o): 70 ± 59 mm3
- TV (mm3) d0 ([2]; Table 3, 5 mg/kg p.o): 98 ± 42 mm3
- Body Weight (g) end [3, 5]: 25.8 g
- Body Weight (g) start [3, 5]: 22.2 g
- RTV [3, 5]: 2.9 ± 0.5
- T/C (%) [3, 5]: 32.5%
- TV (mm^3) d21 [3, 5]: 380 ± 146 mm^3
- TV (mm^3) d0 [3, 5]: 132 ± 47 mm^3
- Body Weight (g) end [3, 6]: 26.0 g
- Body Weight (g) start [3, 6]: 23.0 g
- RTV [3, 6]: 3.5 ± 1.1
- T/C (%) [3, 6]: 32.9%
- TV (mm^3) d21 [3, 6]: 415 ± 71 mm^3
- TV (mm^3) d0 [3, 6]: 130 ± 50 mm^3
- Body Weight (g) end ([3]; Table 4, 5 mg/kg po, 1-5/2 w): 21.5 g
- Body Weight (g) start ([3]; Table 4, 5 mg/kg po, 1-5/2 w): 20.0 g
- RTV ([3]; Table 4, 5 mg/kg po, 1-5/2 w): 2.0 ± 0.5
- T/C (%) ([3]; Table 4, 5 mg/kg po, 1-5/2 w): 46.6%
- TV (mm^3) d14 ([3]; Table 4, 5 mg/kg po, 1-5/2 w): 323 ± 124 mm^3
- TV (mm^3) d0 ([3]; Table 4, 5 mg/kg po, 1-5/2 w): 160 ± 47 mm^3
- inhibitory effects on the growth of HL-60 cells (HL-60 cells): comparable to those of rapamycin
- inhibitory effects on the growth of Rh30 cells (Rh30 cells): comparable to those of rapamycin
- inhibitory effects on the growth of CAKI-1 cells (CAKI-1 cells): comparable to those of rapamycin
- inhibitory effects on the growth of MCF-7 cells (MCF-7 cells): comparable to those of rapamycin
- Safety Index CC50/IC50 ([4]; Table 10): >10.9
- CC50 ([4]; Table 10, value beyond the >100 μM bound, read-out: Cytotoxicity CC50, value in brackets): 7590 µM
- CC50 ([4]; Table 10, read-out: Cytotoxicity CC50): > 100 µM
